Data taken from ChEMBL document CHEMBL4184087, “Synthesis, optical properties and cytotoxicity of meso-heteroatom substituted IR-786 analogs” (Bioorg Med Chem Lett, 2018).

Experiments:
PC-3 = experiment: Antiproliferative activity against human PC3 cells after 48 hrs by MTT assay; format: functional, cell-based; conditions: PC-3, 48 h
[1] = Photostability of the compound in anhydrous methanol solution under UV irradiation of 15 W after 24 hrs by UV-vis spectroscopic analysis
[2] = Stability of the compound in anhydrous methanol solution under dark condition after 24 hrs by UV-vis spectroscopic analysis

SMILES | IC50 (PC-3) | Stability [1] | Stability [2]
CCN(CCO)C1=C(/C=C/C2=[N+](C)c3ccccc3C2(C)C)CCC/C1=C\C=C1\N(C)c2ccccc2C1(C)C | 9.08 µM | – | –
CN(CCO)C1=C(/C=C/C2=[N+](C)c3ccccc3C2(C)C)CCC/C1=C\C=C1\N(C)c2ccccc2C1(C)C | 9.23 µM | – | –
CN(C)CCSC1=C(/C=C/C2=[N+](C)c3ccccc3C2(C)C)CCC/C1=C\C=C1\N(C)c2ccccc2C1(C)C | 6.04 µM | – | –
CN(C)CCNC1=C(/C=C/C2=[N+](C)c3ccccc3C2(C)C)CCC/C1=C\C=C1\N(C)c2ccccc2C1(C)C | 13.2 µM | – | –
CN1/C(=C/C=C2\CCCC(/C=C/C3=[N+](C)c4ccccc4C3(C)C)=C2Sc2ccncc2)C(C)(C)c2ccccc21.[I-] | 12.5 µM | Stable | Stable
CN1/C(=C/C=C2\CCCC(/C=C/C3=[N+](C)c4ccccc4C3(C)C)=C2N2CCC(CO)CC2)C(C)(C)c2ccccc21 | 9.33 µM | – | –
CN1/C(=C/C=C2\CCCC(/C=C/C3=[N+](C)c4ccccc4C3(C)C)=C2NCCO)C(C)(C)c2ccccc21.[I-] | 4.73 µM | Stable | Stable
CN1/C(=C/C=C2\CCCC(/C=C/C3=[N+](C)c4ccccc4C3(C)C)=C2Oc2ccncc2)C(C)(C)c2ccccc21.[I-] | 5.22 µM | Stable | Stable
COc1cccc2c1C(=O)c1c(O)c3c(c(O)c1C2=O)C[C@@](O)(C(=O)CO)C[C@@H]3O[C@H]1C[C@H](N)[C@H](O)[C@H](C)O1 [DOXORUBICIN] | 2.6 µM | – | –
